The values below are quoted from earlier work in patent publication US10434065B2, “Microfluidic liposome synthesis, purification and active drug loading” (University of Maryland, College Park, priority 2013, dated 2019).

Where a name gives a salt, the structure may show the parent alone.

For the compound `CN(C)c1ccc2cc3ccc(N(C)C)cc3nc2c1` [AO, Acridine Orange hydrochloride], the pKa is given as 10.4.

The term pKa denotes the negative logarithm of the acid dissociation constant.
